Assays:
[1] = tested on: i-motif formed from the full-length C-rich strand of hTERT promoter; assay: CD melting (Tm), i-motif; format: binding, human; details: pH 6.6
Procedure: Circular dichroism. Oligomers of WT, G124A, G124/125A, G138/139A and G146A were synthesized and HPSF-purified by MGW Operon, Inc. For CD analysis, oligomers (5 μM) in a buffer containing 10 mM Tris-HCl (pH 7.5) and 140 mM KCl were annealed. For the CD analysis of the complex of oligomers and compounds, oligomers (5 μM) in a buffer containing 10 mM Tris-HCl (pH 7.5) and 5 mM KCl for GTC365 or 1 mM KCl for BRACO-19 were annealed. Oligomers and GTC365 or BRACO-19 were incubated overnight at room temperature. For the full-length of C-rich strand, the oligomer in a buffer of 10 mM Na cacodylate (pH 6.6) was annealed and then incubated with GTC365 overnight. CD analysis was conducted on a Jasco 810 spectropolarimeter (Jasco, Easton, Md.) using a quartz cell with 1 mm of path length, 1 nm of band width, and 1 s of response time for spectra at 20° C. Melting curves for the determination of Tm were obtained by recording ellipticity at 262 nm with increasing temperatures from 25° C. to 95° C. at a rate of 1.6° C./min. Tm of the C-rich strand with GTC365 was obtained from the CD signal at 286 nm within 10-60° C.
In contrast, BRACO-19 increased the Tm of telomeric G-quadruplex by ˜60% compared to that of the hTERT G-quadruplex at 0.5 and 1 equiv. A summary of the comparative Tms of GTC365 and BRACO-19 in hTERT and telomeric DNA is shown below.

[2] = tested on: G124/125A mutant hTERT 5-12 fragment; assay: Single-molecule laser tweezer unfolding, G124/125A mutant; format: biochemical, human; details: 2 μM, 10 mM Tris, 100 mM KCl, pH 7.4; single- and double-stranded template
Procedure: Single-molecule tweezer. Preparation of the DNA construct. The DNA construct that contains the single-stranded hTERT 5-12 fragment was prepared by sandwiching the target sequence between two double-stranded DNA handles. Five deoxythymidines were added at both ends of the hTERT 5-12 fragment to reduce the interference from the double-stranded DNA handles on the target sequence. Briefly, the 2690-base-pair double-stranded DNA handle was prepared through restriction enzyme digestion of the pEGFP vector (Clontech, Mountain View, Calif.). In the first step, the vector was digested by Sad and Eagl restriction enzymes, followed by purification with agarose gel. The EagI end of the DNA fragment was labeled with digoxigenin using terminal deoxynucleotidyl transferase. […]
Single-molecule force-ramp assay. […] After this, the two beads were moved apart to increase the tension on the DNA tether with a loading rate of 5.5 pN/s, and the force-extension (F-X) curves were recorded using the LabVIEW program (National Instruments Corp., Austin, Tex.).
The F-X curves were filtered by Savitzky-Golay function with a 10 ms time constant in the MATLAB program (The Math Works, Natick, Mass.). […] The change-in-contour length (ΔL) was calculated based on the Δx through the worm-like chain model (equation 1). […]

MCF7 cells = assay: Senescence β-galactosidase assay; format: cell-based, human; details: 0.5 μM, 5-10 days
Procedure: Senescence β-galactosidase assay. A colorimetric β-galactosidase assay was performed. Briefly, compound-treated MCF7 cells were fixed in 2% formaldehyde and 0.2% glutaraldehyde for 5 min at room temperature. Fixed cells were incubated with staining solution containing 40 mM citric acid (pH 6.0), 5 mM potassium ferrocyanide, 5 mM potassium ferricyanide, 150 mM NaCl, and 2 mM MgCl2 and 1 mg/ml X-gal (Fermentas R0401) for 7 h at 37° C. Stained cells were washed with D-PBS and methanol and subsequently dried in air.
Since senescence is one of the outcomes resulting from loss of telomere length, this was measured by the associated overexpression of lysosomal β-galactosidase, which releases indigo (blue dye) from X-gal. In addition, the cell morphology will also be dramatically changed so that cells appear to be flat and enlarged. […] Abnormal phenotypes such as bridges connecting two adjacent cells and multinucleated cells were also observed in GTC365-treated cells. hTERT is known to localize to mitotic spindles and centromeres and regulate the expression of genes involved in heterochromatin maintenance. In addition, there is alteration of expression of some proteins involved in collagen synthesis or tubulin organization by hTERT transfection.

Question: For `N=C(N)NCCCS(=O)(=O)Nc1ccc(Nc2c3ccccc3nc3cc([N+](=O)[O-])ccc23)cc1` [GTC365], which “change in Tm of the i-motif” value [1] is on record?
Answer: little change in Tm

Question: And the “full-length G-rich species (>36 nt/bp) population” value [2]?
Answer: recovered

Question: And the “senescence-like phenotype (β-galactosidase staining, morphology)” value (MCF7 cells)?
Answer: distinct senescence-like phenotype (SLP)

Source: patent publication US10556860B2, “hTERT modulators and methods of use” (Arizona Board of Regents on Behalf of the University of …, priority 2015, dated 2020)
